Data from ChEMBL document CHEMBL1145080, “Synthesis and cyclooxygenase-2 inhibiting property of 1,5-diarylpyrazoles with substituted benzenesulfonamide moiety as pharmacophore: Preparation of sodium salt for injectable formulation” (J Med Chem, 2003).
The source made the active and inactive calls. No cut-off for these calls is given here.

Legend:
Rattus norvegicus [1] = assay: Evaluated in vivo for antiinflammatory activity at 30 mg/kg oral dose in the carrageenan-induced rat paw edema (male Wistar rat); format: functional
Rattus norvegicus [2] = assay: Evaluated in vivo for oral dose required to produce antiinflammatory activity in the rat paw edema assay (male Wistar rat); format: functional
[3] = target: T1, Prostaglandin G/H synthase 1 (Ovis aries) (UniProt P05979); assay: In vitro inhibition of Prostaglandin G/H synthase 1 (from ram seminal vesicles) at a concentration of […]
T1 sequence (whole entry): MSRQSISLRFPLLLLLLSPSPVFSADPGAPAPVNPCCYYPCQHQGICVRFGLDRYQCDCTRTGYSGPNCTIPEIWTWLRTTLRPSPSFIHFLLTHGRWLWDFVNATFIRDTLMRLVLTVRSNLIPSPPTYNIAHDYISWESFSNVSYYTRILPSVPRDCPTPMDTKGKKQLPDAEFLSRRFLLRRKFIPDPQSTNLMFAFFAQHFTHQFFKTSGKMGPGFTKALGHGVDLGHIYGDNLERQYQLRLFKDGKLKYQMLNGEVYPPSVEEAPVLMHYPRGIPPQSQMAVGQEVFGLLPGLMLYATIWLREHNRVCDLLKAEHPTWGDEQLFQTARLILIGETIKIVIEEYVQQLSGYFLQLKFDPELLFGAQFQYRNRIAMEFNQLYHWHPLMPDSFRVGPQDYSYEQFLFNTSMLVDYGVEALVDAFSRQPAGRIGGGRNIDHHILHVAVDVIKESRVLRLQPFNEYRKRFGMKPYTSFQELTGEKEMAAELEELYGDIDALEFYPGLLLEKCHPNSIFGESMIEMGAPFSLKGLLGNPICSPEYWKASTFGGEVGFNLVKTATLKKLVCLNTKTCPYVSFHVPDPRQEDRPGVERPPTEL

[4] = target: T2, Prostaglandin G/H synthase 1 (Ovis aries, UniProt P05979)
T2 sequence (P05979 whole entry): T1 sequence (whole entry)
Description: In vitro inhibition against Prostaglandin G/H synthase 1 from ram seminal vesicles

[5] = Pharmacokinetic parameter Tmax was determined in male Wistar rat after 100 mg/kg oral dose of the compound; format: ADME, organism-based; design: dose 100 mg/kg, route oral; details: in vivo
[6] = Partition coefficient (logP); format: physicochemical; details: octanol/water
[7] = Pharmacokinetic parameter Cmax was determined in male Wistar rat after 100 mg/kg oral dose of the compound; format: ADME, organism-based; design: dose 100 mg/kg, route oral; details: in vivo
[8] = Pharmacokinetic parameter AUC(area under curve) was determined in male Wistar rat after 100 mg/kg oral dose of the compound; format: ADME, organism-based; design: dose 100 mg/kg, route oral; details: in vivo
Rattus norvegicus [9] = assay: Evaluated in vivo for antiinflammatory activity at 30 mg/kg oral dose in the carrageenan-induced rat paw edema (male Wistar rat); Not active; format: functional, organism-based; design: dose 30 mg/kg

| inhibition [3] | Compound | inhibition in vivo at 30 mg/kg (Rattus norvegicus [1]) | further results |
| --- | --- | --- | --- |
| – | CCC(=O)NS(=O)(=O)c1ccc(-n2nc(C(F)(F)F)cc2-c2ccc(SC)cc2)c(F)c1 | 37% | – |
| 0% | COc1ccc(-c2cc(C(F)(F)F)nn2-c2ccc(S(N)(=O)=O)c(F)c2)cc1 | 52% | ED30 (Rattus norvegicus [2]): 1 mg/kg; ED50 (Rattus norvegicus [2]): 12.7 mg/kg; IC50 [4]: > 170 µM |
| – | Cc1ccc(-c2cc(C(F)(F)F)nn2-c2ccc(S(N)(=O)=O)cc2)cc1 [CELECOXIB] | 49% | Tmax [5]: 3.25 h; logP [6]: 3.01; Cmax [7]: 2470 ng/mL; AUC [8]: 23200 ng·h/mL; ED50 (Rattus norvegicus [2]): 7.9 mg/kg |
| 34% | CCCC(=O)NS(=O)(=O)c1ccc(-n2nc(C(F)(F)F)cc2-c2ccc(SC)cc2)c(F)c1 | 40% | – |
| – | CCC(=O)[N-]S(=O)(=O)c1ccc(-c2c(-c3ccccc3)noc2C)cc1.[Na+] [PARECOXIB SODIUM] | – | ED50 (Rattus norvegicus [2]): 5 mg/kg |
| – | CS(=O)(=O)c1ccc(C2=C(c3ccccc3)C(=O)OC2)cc1 [ROFECOXIB] | 37% | Tmax [5]: 3 h; Cmax [7]: 5610 ng/mL; AUC [8]: 57900 ng·h/mL |
| 0% | CCC(=O)NS(=O)(=O)c1ccc(-n2nc(C(F)(F)F)cc2-c2ccc(F)cc2)c(F)c1 | 38% | – |
| 32% | CCCC(=O)NS(=O)(=O)c1ccc(-n2nc(C(F)(F)F)cc2-c2ccc(OC)cc2)c(F)c1 | 42% | – |
| 10% | CC(=O)NS(=O)(=O)c1ccc(-n2nc(C(F)(F)F)cc2-c2ccc(C)cc2)cc1 | 27% | – |
| 75% | COc1ccc(-c2cc(C(F)(F)F)nn2-c2ccc(S(N)(=O)=O)c(C)c2)cc1 | – | – |
| 100% | COc1ccc2c(c1)c(CC(=O)O)c(C)n2C(=O)c1ccc(Cl)cc1 | – | – |
| 29% | CSc1ccc(-c2cc(C(F)(F)F)nn2-c2ccc(S(N)(=O)=O)cc2F)cc1 | 33% | Tmax [5]: 1.26 h; logP [6]: 3.81; Cmax [7]: 3210 ng/mL; AUC [8]: 6650 ng·h/mL; IC50 [4]: 24.3 µM |
| 0% | CCCC(=O)NS(=O)(=O)c1ccc(-n2nc(C(F)(F)F)cc2-c2ccc(F)cc2)c(F)c1 | 22% | – |
| 26% | CC(=O)NS(=O)(=O)c1ccc(-n2nc(C(F)(F)F)cc2-c2ccc(F)cc2)c(F)c1 | 44% | – |
| 18% | CCC(=O)[N-]S(=O)(=O)c1ccc(-n2nc(C(F)(F)F)cc2-c2ccc(OC)cc2)c(F)c1.[Na+] | 78% | ED50 (Rattus norvegicus [2]): 6 mg/kg |
| 0% | CCC(=O)NS(=O)(=O)c1ccc(-n2nc(C(F)(F)F)cc2-c2ccc(C)cc2)cc1 | 30% | – |
| 13% | COc1ccc(-c2cc(C(F)(F)F)nn2-c2ccc(S(N)(=O)=O)cc2F)cc1 | 26% | Tmax [5]: 7.5 h; logP [6]: 3.14; Cmax [7]: 3300 ng/mL; AUC [8]: 46400 ng·h/mL; IC50 [4]: > 30 µM |
| 16% | COc1ccc(-c2cc(C(F)(F)F)nn2-c2ccc(S(=O)(=O)NC(=O)C(C)(C)C)cc2F)cc1 | – | inhibition (Rattus norvegicus [9]): inactive |
| 2% | CCCC(=O)[N-]S(=O)(=O)c1ccc(-n2nc(C(F)(F)F)cc2-c2ccc(C)cc2)cc1.[Na+] | 63% | ED50 (Rattus norvegicus [2]): 6.69 mg/kg |
